# Columns and labels:
# Assay type in all cases: cell-based, human
# SNU16 = test: Cell viability drug screen, 12-point dose-response AUC; details: SNU16 cells; 72 hours; 12-point dose-response
# Procedure, shortened: (§1)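 AUC comes from 12-point half-log dose–response curves, normalized to DMSO-treated cells and integrated trapezoidally, repeats averaged. Luminescent viability read after 72 h compound exposure at 37 °C; cells plated 5×10^3 per well 24 h before dosing.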
# SNU620 = test: as above; details: SNU620 cells; 72 hours; 12-point dose-response
# Procedure, shortened: as §1
# MKN28 = test: as above; details: MKN28 cells; 72 hours; 12-point dose-response
# Procedure, shortened: as §1
# NCI_N87 = test: as above; details: NCI_N87 cells; 72 hours; 12-point dose-response
# Procedure, shortened: as §1
# SK4 = test: as above; details: SK4 cells; 72 hours; 12-point dose-response
# Procedure, shortened: as §1
# NCC24 = test: as above; details: NCC24 cells; 72 hours; 12-point dose-response
# Procedure, shortened: as §1
# AGS = test: as above; details: AGS cells; 72 hours; 12-point dose-response
# Procedure, shortened: (§2)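 Dose-response AUC reflects 72 h drug exposure of gastric cancer cells in a 12-point, half-log format, with viability read by luminescence and normalized to DMSO (0.5%).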
# YCC2 = test: as above; details: YCC2 cells; 72 hours; 12-point dose-response
# Procedure, shortened: as §1
# SNU638 = test: as above; details: SNU638 cells; 72 hours; 12-point dose-response
# Procedure, shortened: as §1
# SNU1967 = test: as above; details: SNU1967 cells; 72 hours; 12-point dose-response
# Procedure, shortened: as §1
# KATO3 = test: as above; details: KATO3 cells; 72 hours; 12-point dose-response
# Procedure, shortened: as §1
# MKN1 = test: as above; details: MKN1 cells; 72 hours; 12-point dose-response
# Procedure, shortened: as §1
# MKN74 = test: as above; details: MKN74 cells; 72 hours; 12-point dose-response
# Procedure, shortened: as §2
# Hs746T = test: as above; details: Hs746T cells; 72 hours; 12-point dose-response
# Procedure, shortened: as §1
# OCUM1 = test: as above; details: OCUM1 cells; 72 hours; 12-point dose-response
# Procedure, shortened: as §1
# SNU719 = test: as above; details: SNU719 cells; 72 hours; 12-point dose-response
# Procedure, shortened: as §2
# MKN45 = test: as above; details: MKN45 cells; 72 hours; 12-point dose-response
# Procedure, shortened: as §2
# SNU216 = test: as above; details: SNU216 cells; 72 hours; 12-point dose-response
# Procedure, shortened: as §2
# SNU668 = test: as above; details: SNU668 cells; 72 hours; 12-point dose-response
# Procedure, shortened: as §1
# YCC3 = test: as above; details: YCC3 cells; 72 hours; 12-point dose-response
# Procedure, shortened: as §1
# SNU601 = test: as above; details: SNU601 cells; 72 hours; 12-point dose-response
# Procedure, shortened: as §1
# NCC20 = test: as above; details: NCC20 cells; 72 hours; 12-point dose-response
# Procedure, shortened: as §1
# SNU1 = test: as above; details: SNU1 cells; 72 hours; 12-point dose-response
# Procedure, shortened: as §1
# NCC59 = test: as above; details: NCC59 cells; 72 hours; 12-point dose-response
# Procedure, shortened: as §1
# YCC11 = test: as above; details: YCC11 cells; 72 hours; 12-point dose-response
# Procedure, shortened: as §1
# NCC19 = test: as above; details: NCC19 cells; 72 hours; 12-point dose-response
# Procedure, shortened: as §1
# SNU484 = test: as above; details: SNU484 cells; 72 hours; 12-point dose-response
# Procedure, shortened: as §1
# SNU1750 = test: as above; details: SNU1750 cells; 72 hours; 12-point dose-response
# Procedure, shortened: as §1
# [1] = tested on: SEM-type gastric cancer cell line; test: Cell viability drug screen, AUC summary over SEM-type lines
# Protocol: An FDA-approved small-molecule pharmacological compound (#L1300) and an anticancer compound for research (#L2000) were purchased from Selecckchem and a 10 mM solution was prepared in DMSO. A total of 1,345 compounds were tested the cell viability of the seven EMT gastric cancer cell lines.
# Cells cultured for cell-based drug assay were inoculated into a 96-well white optical plate (Corning) at 5×10^3 cells per well. After 24 hours after inoculation, a 2.5 MJT (primary screen) or a half-log 12-serial diluent (secondary screen) of the pharmacological compound contained in DMSO is added to the cells with a robot using a BioMek FXp liquid processor (Beckman) to add to the cells at 50 mM. The final drug concentration in the 5 ns range and the DMSO specification control (0.5%) were calculated. The cells were then further incubated at 37° C. in a 5% CO2 incubator for 72 hours prior to measuring cell viability using the extra-GLO assay kit (Promega). The luminescent properties were measured after 15 min incubation at room temperature using a plate stacker equipped with a plate stacker. The normalized viability for the DMSO-based control was measured to generate a cell line-specific 12-point dose-response curve for each pharmacological compound, and then the area under the curve (AUC) was calculated using a trapezoidal method.
# FU97 = test: Cell viability drug screen, 12-point dose-response AUC; details: FU97 cells; 72 hours; 12-point dose-response
# Procedure, shortened: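 Trapezoidal AUC of a 12-point, DMSO-normalized dose-response curve. Luminescent viability was measured after 72 h of exposure at 37° C to half-log serial dilutions (0.5% DMSO control), dosed 24 h after plating FU97 cells at 5×10^3 per well.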
# [2] = tested on: non-SEM-type gastric cancer cell line; test: Cell viability drug screen, AUC summary over non-SEM-type lines; details: in the non-SEM-type gastric cancer cell line
SMILES,"area under the viability curve (AUC), normalized (SNU16)","area under the viability curve (AUC), normalized (SNU620)","area under the viability curve (AUC), normalized (MKN28)","area under the viability curve (AUC), normalized (NCI_N87)","area under the viability curve (AUC), normalized (SK4)","area under the viability curve (AUC), normalized (NCC24)","area under the viability curve (AUC), normalized (AGS)","area under the viability curve (AUC), normalized (YCC2)","area under the viability curve (AUC), normalized (SNU638)","area under the viability curve (AUC), normalized (SNU1967)","area under the viability curve (AUC), normalized (KATO3)","area under the viability curve (AUC), normalized (MKN1)","area under the viability curve (AUC), normalized (MKN74)","area under the viability curve (AUC), normalized (Hs746T)","area under the viability curve (AUC), normalized (OCUM1)","area under the viability curve (AUC), normalized (SNU719)","area under the viability curve (AUC), normalized (MKN45)","area under the viability curve (AUC), normalized (SNU216)","area under the viability curve (AUC), normalized (SNU668)","area under the viability curve (AUC), normalized (YCC3)",other results
"C[C@@H]1O[C@@H](O[C@H]2C[C@@H](O)[C@]3(CO)[C@H]4[C@H](O)C[C@]5(C)[C@@H](C6=CC(=O)OC6)CC[C@]5(O)[C@@H]4CC[C@]3(O)C2)[C@H](O)[C@H](O)[C@H]1O [Oubain, Ouabain]",2.229,0,−0.5183,0.9192,−1.414,−0.2417,−0.4351,−0.6785,1.054,0.9873,4.783,−1.223,−0.9472,0.3093,0.1113,5.038,−0.3665,0.2009,−1.026,4.209,"area under the viability curve (AUC), normalized (SNU601): 2.702; area under the viability curve (AUC), normalized (NCC20): 0.2365; area under the viability curve (AUC), normalized (SNU1): −0.4741; area under the viability curve (AUC), normalized (NCC59): 1.567; area under the viability curve (AUC), normalized (YCC11): −0.3494; area under the viability curve (AUC), normalized (NCC19): 0.3874; area under the viability curve (AUC), normalized (SNU484): −2.03; area under the viability curve (AUC), normalized (SNU1750): −0.7374; normalized viability AUC [1]: negative; area under the viability curve (AUC), normalized (FU97): −0.3889; AUC value [2]: high"
"Nc1ccc(-c2ccc3ncc4ccc(=O)n(-c5cccc(C(F)(F)F)c5)c4c3c2)cn1 [Torin, Torin 2]",0.9803,0.3965,0.8861,0.3078,−2.722,0,−1.701,−0.06527,0.3739,−0.557,2.66,−1.574,−0.1868,−0.7581,−0.1127,3.841,0.6704,−0.4964,0.4391,1.399,"area under the viability curve (AUC), normalized (SNU601): 0.4104; area under the viability curve (AUC), normalized (NCC20): −1.598; area under the viability curve (AUC), normalized (SNU1): 1.392; area under the viability curve (AUC), normalized (NCC59): 1.584; area under the viability curve (AUC), normalized (YCC11): −2.299; area under the viability curve (AUC), normalized (NCC19): 1.614; area under the viability curve (AUC), normalized (SNU484): −0.505; area under the viability curve (AUC), normalized (SNU1750): −0.787; normalized viability AUC [1]: negative; area under the viability curve (AUC), normalized (FU97): −1.526; AUC value [2]: high"

# From US20250129430A1, “HIGH ATP-AFFINITY PROTEIN AS THERAPEUTIC TARGET FOR INTRACTABLE CANCER MOLECULAR SUBTYPES AND INHIBITOR THEREOF” (VeraVerse Co., Ltd., priority 2021, published 2025)
